This note sets out measurements from ChEMBL document CHEMBL3352461, “Discovery and optimization of 5-fluoro-4,6-dialkoxypyrimidine GPR119 agonists” (Bioorg Med Chem Lett, 2014).

Activity calls are given as the source filed them. No cut-off for these calls is given here.

Data set [1] has as its system Rattus norvegicus. The data set can be described thus: Reduction in plasma glucose level in Zucker diabetic fatty rat at 3 mg/kg, po administered 30 mins prior to challenge measured in 20 mins interval for 120 mins by oral glucose tolerance test relative to vehicle-treated control. Also on record: scale not given: the % may be the effect or the level left. The format is functional.

In data set [2] the target is T1, Glucose-dependent insulinotropic receptor (Homo sapiens, UniProt Q8TDV5).
T1 sequence (Q8TDV5 whole entry): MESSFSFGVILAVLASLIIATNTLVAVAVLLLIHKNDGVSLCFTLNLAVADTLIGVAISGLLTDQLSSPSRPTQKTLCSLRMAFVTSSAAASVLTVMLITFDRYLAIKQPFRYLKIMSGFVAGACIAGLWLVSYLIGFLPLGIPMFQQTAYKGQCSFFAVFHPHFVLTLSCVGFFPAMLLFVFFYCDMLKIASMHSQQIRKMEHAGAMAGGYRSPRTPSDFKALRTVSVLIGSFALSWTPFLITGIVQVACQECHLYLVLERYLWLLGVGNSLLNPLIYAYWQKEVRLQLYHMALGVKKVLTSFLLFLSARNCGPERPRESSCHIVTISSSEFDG
The data set can be described thus: […] of human GPR119 activity by homogeneous time resolved fluorescence cyclase (cAMP) assay. It is filed as functional.

Data set [3] has as its target T2, Glucose-dependent insulinotropic receptor (Homo sapiens) (UniProt Q8TDV5).
T2 sequence (whole entry): T1 sequence (Q8TDV5 whole entry)
Nature of the data set: […] of human GPR119 activity by homogeneous time resolved fluorescence cyclase (cAMP) assay relative to AR231453. The format is functional.

For data set [4], the target named is T3, Glucose-dependent insulinotropic receptor (Rattus norvegicus, UniProt Q7TQN8).
T3 sequence (Q7TQN8 whole entry): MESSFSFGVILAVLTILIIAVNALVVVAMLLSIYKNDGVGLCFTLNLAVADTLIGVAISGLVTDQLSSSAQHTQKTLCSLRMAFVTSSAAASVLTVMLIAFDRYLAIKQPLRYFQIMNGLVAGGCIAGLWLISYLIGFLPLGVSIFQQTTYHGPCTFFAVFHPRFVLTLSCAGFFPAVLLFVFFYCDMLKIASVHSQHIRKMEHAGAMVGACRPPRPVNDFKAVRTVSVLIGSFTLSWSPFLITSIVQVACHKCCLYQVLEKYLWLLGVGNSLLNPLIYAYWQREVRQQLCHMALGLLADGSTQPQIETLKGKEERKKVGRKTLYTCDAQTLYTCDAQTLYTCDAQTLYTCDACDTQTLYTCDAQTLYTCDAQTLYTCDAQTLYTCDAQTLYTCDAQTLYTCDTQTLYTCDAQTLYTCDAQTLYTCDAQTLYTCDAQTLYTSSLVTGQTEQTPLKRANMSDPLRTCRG
The data set can be described thus: […] of rat GPR119 activity by homogeneous time resolved fluorescence cyclase (cAMP) assay. The format is functional.

Data set [5] addresses T4, Glucose-dependent insulinotropic receptor (Rattus norvegicus) (UniProt Q7TQN8).
T4 sequence (whole entry): T3 sequence (Q7TQN8 whole entry)
The data set can be described thus: […] of rat GPR119 activity by homogeneous time resolved fluorescence cyclase (cAMP) assay relative to AR231453. It is filed as functional.

For a further data set, the target named is Cytochrome P450 2C9 (Homo sapiens, UniProt P11712). Nature of the data set: Inhibition of CYP2C9 (unknown origin). The format is ADME.
Cytochrome P450 2C9, sequence (P11712 whole entry): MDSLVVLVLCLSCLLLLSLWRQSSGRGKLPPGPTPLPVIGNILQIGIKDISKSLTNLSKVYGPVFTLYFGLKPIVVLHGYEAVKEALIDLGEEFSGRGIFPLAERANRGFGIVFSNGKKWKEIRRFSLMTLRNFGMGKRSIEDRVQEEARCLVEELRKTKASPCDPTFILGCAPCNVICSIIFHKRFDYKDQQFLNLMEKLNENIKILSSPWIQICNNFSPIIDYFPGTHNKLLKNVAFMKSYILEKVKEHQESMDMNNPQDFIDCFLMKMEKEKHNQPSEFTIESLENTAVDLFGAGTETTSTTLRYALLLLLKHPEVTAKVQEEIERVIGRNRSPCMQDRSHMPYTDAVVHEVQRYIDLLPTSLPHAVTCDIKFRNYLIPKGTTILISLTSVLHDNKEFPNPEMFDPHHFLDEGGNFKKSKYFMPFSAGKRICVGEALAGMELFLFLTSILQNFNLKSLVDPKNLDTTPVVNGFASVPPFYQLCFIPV
In a further data set the target is Cytochrome P450 3A4 (Homo sapiens, UniProt P08684). Nature of the data set: Inhibition of CYP3A4 (unknown origin). It is filed as ADME.
Cytochrome P450 3A4, sequence (P08684 whole entry): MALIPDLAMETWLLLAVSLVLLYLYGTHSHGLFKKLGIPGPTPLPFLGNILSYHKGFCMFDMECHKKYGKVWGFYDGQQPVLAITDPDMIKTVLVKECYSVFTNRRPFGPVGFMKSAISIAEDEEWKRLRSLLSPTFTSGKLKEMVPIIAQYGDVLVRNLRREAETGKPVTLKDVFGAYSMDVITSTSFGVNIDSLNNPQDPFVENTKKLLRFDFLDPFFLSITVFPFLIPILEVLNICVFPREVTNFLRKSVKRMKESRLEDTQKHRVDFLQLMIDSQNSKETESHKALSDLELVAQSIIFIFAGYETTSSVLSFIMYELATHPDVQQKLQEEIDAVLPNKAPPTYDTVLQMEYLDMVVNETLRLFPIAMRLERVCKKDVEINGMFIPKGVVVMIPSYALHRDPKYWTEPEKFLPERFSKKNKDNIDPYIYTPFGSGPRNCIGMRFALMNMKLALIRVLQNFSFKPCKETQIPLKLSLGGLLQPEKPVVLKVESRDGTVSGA
The next data set addresses Cytochrome P450 2D6 (Homo sapiens, UniProt P10635). Nature of the data set: Inhibition of CYP2D6 (unknown origin). It is filed as ADME.
For a further data set, the target named is T5, Cytochrome P450 1A2 (Homo sapiens, UniProt P05177).
T5 sequence (P05177 whole entry): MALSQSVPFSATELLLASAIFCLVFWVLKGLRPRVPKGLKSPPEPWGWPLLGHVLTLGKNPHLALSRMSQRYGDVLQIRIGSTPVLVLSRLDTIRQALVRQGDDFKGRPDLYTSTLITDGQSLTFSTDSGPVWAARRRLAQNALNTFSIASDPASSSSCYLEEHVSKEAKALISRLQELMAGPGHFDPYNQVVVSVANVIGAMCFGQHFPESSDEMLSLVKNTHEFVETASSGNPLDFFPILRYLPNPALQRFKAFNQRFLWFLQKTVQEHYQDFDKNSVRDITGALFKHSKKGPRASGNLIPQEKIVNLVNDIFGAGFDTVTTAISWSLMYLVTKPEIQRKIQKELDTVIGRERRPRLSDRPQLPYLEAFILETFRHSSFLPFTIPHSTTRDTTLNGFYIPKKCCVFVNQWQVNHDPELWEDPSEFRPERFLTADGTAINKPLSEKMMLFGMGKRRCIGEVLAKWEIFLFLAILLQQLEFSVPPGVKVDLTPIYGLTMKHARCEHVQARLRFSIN
Nature of the data set: Inhibition of CYP1A2 (unknown origin). It is filed as ADME.

Another data set deals with Cytochrome P450 2C19 (Homo sapiens, UniProt P33261). Nature of the data set: Inhibition of CYP2C19 (unknown origin). The format is ADME.
Cytochrome P450 2C19, sequence (P33261 whole entry): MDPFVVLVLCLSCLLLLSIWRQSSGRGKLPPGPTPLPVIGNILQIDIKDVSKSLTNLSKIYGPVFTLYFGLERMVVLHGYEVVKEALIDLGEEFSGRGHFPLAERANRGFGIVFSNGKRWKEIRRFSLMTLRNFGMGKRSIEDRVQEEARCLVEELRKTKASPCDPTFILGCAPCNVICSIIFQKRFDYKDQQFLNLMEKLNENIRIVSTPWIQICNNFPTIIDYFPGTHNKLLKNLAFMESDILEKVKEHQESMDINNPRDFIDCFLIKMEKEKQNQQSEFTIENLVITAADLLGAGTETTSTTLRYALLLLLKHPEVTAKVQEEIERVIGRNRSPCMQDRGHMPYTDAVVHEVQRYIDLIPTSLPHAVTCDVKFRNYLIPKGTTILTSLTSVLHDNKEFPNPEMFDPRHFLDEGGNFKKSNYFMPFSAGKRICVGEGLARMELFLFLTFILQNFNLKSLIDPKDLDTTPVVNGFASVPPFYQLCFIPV
Another data set concerns the target CYP2C9 (Homo sapiens, UniProt P11712). Nature of the data set: Ratio of APD597 IC50 to compound IC50 for CYP2C9 (unknown origin). The format is ADME. To be noted: read-out: Ratio IC50.
The nature of data set [6]: Efflux ratio of permeability in human Caco2 cells. Particulars: Caco-2. The format is ADME, cell-based.
Data set [7] can be described thus: Stability in rat hepatocytes assessed as compound remaining after 90 mins. Particulars: read-out: Stability. It is filed as ADME, cell-based, Hepatocyte.
The nature of data set [8]: Stability in dog hepatocytes assessed as compound remaining after 90 mins. The format is ADME, cell-based, Canis lupus familiaris, Hepatocyte. Particulars: read-out: Stability.
Data set [9] is described as follows: Stability in monkey hepatocytes assessed as compound remaining after 90 mins. The format is ADME, cell-based, Macaca mulatta, Hepatocyte. To be noted: rhesus monkey, read-out: Stability.
A short description of data set [10]: Stability in human hepatocytes assessed as compound remaining after 90 mins. The format is ADME, cell-based, Hepatocyte. To be noted: read-out: Stability.
For data set [11], the system named is Rattus norvegicus. Nature of the data set: Clearance in Sprague-Dawley rat at 2 mg/kg, iv and po. The format is ADME, organism-based. Particulars: in vivo. Also on record: dose 2 mg/kg, route oral.
In data set [12] the test system is Rattus norvegicus. Nature of the data set: Volume of distribution at steady state in Sprague-Dawley rat at 2 mg/kg, iv and po. It is filed as ADME, organism-based. Details: dose 2 mg/kg, route oral. To be noted: in vivo.
In data set [13] the test system is Rattus norvegicus. The data set can be described thus: AUClast in Sprague-Dawley rat at 2 mg/kg, iv and po. It is filed as ADME, organism-based, Plasma. Details: dose 2 mg/kg, route oral. Particulars: in vivo.
A short description of data set [14]: Elimination half life in Sprague-Dawley rat at 2 mg/kg, po. Also on record: dose 2 mg/kg, route oral. It is filed as ADME, organism-based. Particulars: in vivo, read-out: beta t1/2 (converted).
The test system of data set [15] is Rattus norvegicus. The data set can be described thus: Bioavailability in Sprague-Dawley rat at 2 mg/kg, iv and po. The format is ADME, organism-based. To be noted: in vivo.
For data set [16], the system named is Mus musculus. The data set can be described thus: Increase in GIP release in normoglycemic 129SVE mouse at 3 to 10 mg/kg, po measured after 45 mins. It is filed as functional, organism-based.
Data set [17] deals with Mus musculus. The data set can be described thus: Reduction in plasma glucose level in normoglycemic 129SVE mouse at 3 to 10 mg/kg, po administered 30 mins prior to challenge measured in 20 mins interval for 120 mins by oral glucose tolerance test relative to vehicle-treated control. Also on record: scale not given: the % may be the effect or the level left. Particulars: dose mg/kg 3-10. It is filed as functional.

Data set [18] has as its system Rattus norvegicus. Nature of the data set: Reduction in plasma glucose level in Zucker diabetic fatty rat at 10 to 30 mg/kg, po administered 30 mins prior to challenge measured in 20 mins interval for 120 mins by oral glucose tolerance test relative to vehicle-treated control. It is filed as functional. Also on record: scale not given: the % may be the effect or the level left. Particulars: dose mg/kg 10-30.

Data set [19] has as its system Rattus norvegicus. The data set can be described thus: Reduction in plasma glucose level in Zucker diabetic fatty rat at 10 to 30 mg/kg, po administered 30 mins prior to challenge measured in 20 mins interval for 120 mins by oral glucose tolerance test relative to vehicle-treated control in presence of sitagliptin. The format is functional. Also on record: scale not given: the % may be the effect or the level left. Particulars: dose mg/kg 10-30.

CYP2C9, sequence (P11712 whole entry): as the sequence (P11712 whole entry) above
Cytochrome P450 2D6, sequence (P10635 whole entry): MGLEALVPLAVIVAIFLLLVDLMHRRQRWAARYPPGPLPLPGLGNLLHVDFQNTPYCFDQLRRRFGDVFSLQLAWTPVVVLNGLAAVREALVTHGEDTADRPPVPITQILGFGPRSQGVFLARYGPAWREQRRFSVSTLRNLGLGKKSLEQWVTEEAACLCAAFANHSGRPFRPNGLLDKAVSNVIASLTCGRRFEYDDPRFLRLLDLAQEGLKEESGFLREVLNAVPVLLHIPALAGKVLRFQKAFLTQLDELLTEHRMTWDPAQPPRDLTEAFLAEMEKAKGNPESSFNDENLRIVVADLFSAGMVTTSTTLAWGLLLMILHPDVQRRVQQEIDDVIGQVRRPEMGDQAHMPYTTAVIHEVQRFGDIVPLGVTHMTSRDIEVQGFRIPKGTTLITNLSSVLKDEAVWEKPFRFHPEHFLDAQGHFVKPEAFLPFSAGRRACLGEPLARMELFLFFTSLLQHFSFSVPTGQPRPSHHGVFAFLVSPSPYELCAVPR

On to `N[C@@H](CC(=O)N1CCn2c(nnc2C(F)(F)F)C1)Cc1cc(F)c(F)cc1F` [SITAGLIPTIN], for which the Activity in the data set on Rattus norvegicus [1] is recorded as 70%.

Turning to `Cc1nc(S(C)(=O)=O)ccc1Oc1ncnc(OC2CCN(C(=O)OC3(C)CC3)CC2)c1F`, the values for the EC50 in [2] and in data set [4] were 0.0138 µM and 0.169 µM, respectively. Moreover, the Efficacy in [3] came out at 94%; in data set [5], 93%. Moreover, the IC50 was determined as 25.7 µM on Cytochrome P450 2C9 and 23.4 µM against Cytochrome P450 2C19. In addition, the “inhibition (INH)” value on Cytochrome P450 3A4, on Cytochrome P450 2D6 and against Cytochrome P450 1A2 was “Not Active” throughout. Moreover, the selectivity ratio on CYP2C9 is 4. For the same compound, the efflux ratio in data set [6] was 1. The remaining at 1.5 h amounted to 51% in data set [7], 89% in data set [8], 50% in data set [9] and 100% in data set [10]. Further, the CL in the data set with Rattus norvegicus [11] came out at 19.8 mL/min/kg. Further, the Vdss in the data set with Rattus norvegicus [12] amounted to 2.91 L/kg. Also, the AUClast in the data set on Rattus norvegicus [13] was found to be 1220 ng·h/mL. Also, in data set [14], the half-life is 2.71 h. Further, the F in the data set with Rattus norvegicus [15] is recorded as 72.7%. Besides, the result with Mus musculus [16] was Active. Moreover, the values for the Activity in the data set with Mus musculus [17], in the data set with Rattus norvegicus [18] and in the data set on Rattus norvegicus [19] were 35%, 50% and 70%, respectively.

What is called EC50 is the concentration needed to bring the measured effect to its halfway point. For orientation: IC50 means the concentration that inhibits the measured activity by half. As a reminder, the efflux ratio is a quotient of directional permeabilities that is used to spot active efflux.
